Measurements taken from article PMC3355380, “Back to the Future: Lessons Learned in Modern Target-based and Whole-Cell Lead Optimization of Antimalarials” (Current Topics in Medicinal Chemistry, 2012).
Read-outs that look alike come from different tables or passages of the source. Values belong to the compound of their own block, whether it stands above or below them.

Legend:
P. falciparum 3D7 = P. falciparum 3D7 proliferation assay; assay type: cell-based, Plasmodium falciparum; settings: for EC50: Plasmodium falciparum, 3D7
Source text: (§1) We screened both our in-house compound collection (~2.3M compounds) and natural products library (12,000 compounds) using a cell based Plasmodium falciparum proliferation assay. This screen provided data on a large number of chemically diverse anti-malarial compounds. These nearly 5700 hits have been deposited into the public EBI database by GNF/Novartis. A number of these hits originated from kinase-directed libraries and many of which are pan-kinase inhibitors. De-convoluting and eliminating inherent kinase activity with many of these scaffolds while maintaining cellular potency was the first step in the hit-to-lead phase for these particular chemotypes. What follows is a summary of the chemical optimization of some kinase-like and non-kinase scaffolds which came out of the whole-cell screening effort.

recombinant PfCDPK1 = recombinant PfCDPK1 (Plasmodium falciparum, UniProt P62344); test: PfCDPK1 enzyme inhibition; assay type: biochemical; settings: mean of two experiments; read-out: PfCDPK1 IC50
Chain of recombinant PfCDPK1 (P62344 whole entry): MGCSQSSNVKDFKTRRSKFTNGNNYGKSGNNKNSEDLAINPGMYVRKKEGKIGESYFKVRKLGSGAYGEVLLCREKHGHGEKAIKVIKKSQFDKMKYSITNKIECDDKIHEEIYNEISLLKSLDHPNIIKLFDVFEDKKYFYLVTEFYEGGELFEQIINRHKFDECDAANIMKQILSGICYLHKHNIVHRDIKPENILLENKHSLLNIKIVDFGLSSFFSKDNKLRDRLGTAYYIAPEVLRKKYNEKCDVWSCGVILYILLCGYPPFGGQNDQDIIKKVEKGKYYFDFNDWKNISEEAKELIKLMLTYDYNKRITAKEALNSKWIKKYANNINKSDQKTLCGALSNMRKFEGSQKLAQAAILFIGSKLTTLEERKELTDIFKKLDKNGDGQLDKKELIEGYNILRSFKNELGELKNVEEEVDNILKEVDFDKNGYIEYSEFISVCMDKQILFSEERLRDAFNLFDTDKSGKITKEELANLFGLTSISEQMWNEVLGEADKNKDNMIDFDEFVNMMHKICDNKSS
Source text: In P. falciparum, calcium-dependent protein kinase 1 (PfCDPK1) is expressed during schizogony in the blood and sporozoite stages and is ultimately required for parasite invasion of host cells, parasite motility, and potentially cytokinesis. We identified a series of purine-based, ATP competitive kinase inhibitors from a target-based screen of approximately 20,000 compounds on recombinant PfCDPK1 [9]. Of the most promising hits, the 2,6,9-trisubstitutes purines made up the largest class of compounds coming out of the screen and were therefore chosen as a lead series for chemical optimization.

P. falciparum NF54 = P. falciparum NF54 in vitro potency; assay type: cell-based; settings: Plasmodium falciparum, spiroindolones, Tables 8 and 9
[1] = metabolic stability in mouse liver microsomes; assay type: in vitro ADME; settings: for Liver Microsomes CLint, Mouse: intrinsic clearance, high clearance corresponds to low stability; for half-life: mouse, liver microsomes, read-out: Liver Microsomes t1/2 (min), Mouse
[2] = metabolic stability in human liver microsomes; assay type: in vitro ADME; settings: for half-life: human, liver microsomes, read-out: Liver Microsomes t1/2 (min), Human; for Liver Microsomes CLint, Human: intrinsic clearance, high clearance corresponds to low stability
[3] = tested on: fifteen P. falciparum strains; test: panel of fifteen P. falciparum wild type and drug resistant strains; assay type: cell-based; settings: Plasmodium falciparum, read-out: in vitro EC50s across fifteen P. falciparum strains
190 kinases = test: human kinase profile on 190 kinases, biochemical and cellular formats; settings: biochemical and cellular assay formats
P. falciparum W2 = P. falciparum W2 proliferation assay; assay type: cell-based; settings: Plasmodium falciparum, mean of two experiments
Source text: as §1

Huh7 = test: cytotoxicity on Huh7 cells; settings: mean of two experiments
Plasmodium berghei = test: P. berghei murine model; assay type: in vivo; settings: for Activity (%): average parasitemia reduction; for Cure Rate (%): cure was no parasites at day 30
[4] = target: QM-PfDHFR (quadruple mutant PfDHFR); set-up: method as in PMID 20350951; settings: cited from earlier work
[5] = target: WT-PfDHFR (wild type PfDHFR); set-up: method as in PMID 20350951; settings: cited from earlier work
[6] = purines, mean of two experiments, read-out: P. falciparum 3D7 EC50
[7] = piperidyl benzamides, mean of two experiments, read-out: P. falciparum 3D7 EC50
[8] = imidazolopiperazine hits, mean of two experiments, read-out: P. falciparum 3D7 EC50
[9] = 1 x 30 mg/kg, 7% Tween 80/3% ethanol (20: 75% PEG300/25%D5W)
[10] = 1 x 30 mg/kg, untreated mice 6-7 days
[11] = 1 x 100 mg/kg, untreated mice 6-7 days
[12] = 3 x 30 mg/kg, untreated mice 6-7 days

SMILES: C[C@H]1Cc2c([nH]c3cc(F)ccc23)[C@@]2(N1)C(=O)Nc1ccc(Cl)cc12 [Compound 28]
EC50 (P. falciparum NF54): 0.0035 µM
Liver Microsomes CLint, Mouse [1]: Low
half-life [1]: 53 min
half-life [2]: 53.3 min
Liver Microsomes CLint, Human [2]: Low

SMILES: C[C@H]1Cc2c([nH]c3ccc(F)cc23)[C@@]2(N1)C(=O)Nc1ccc(Cl)cc12 [Compound 27]
EC50 (P. falciparum NF54): 0.0034 µM
Liver Microsomes CLint, Mouse [1]: High
half-life [1]: 4.2 min
half-life [2]: 10 min
Liver Microsomes CLint, Human [2]: Med

SMILES: CC1CCCN(C2CCN(c3cc(C(=O)Nc4cccc(C(F)(F)F)c4)cc(C(F)(F)F)c3)CC2)C1 (stereo not shown) [Compound 15]
EC50 (P. falciparum 3D7; [7]): 0.058 µM
EC50 (P. falciparum W2; piperidyl benzamides): 0.211 µM

SMILES: CC(C)(N)C(=O)N1CCn2c(nc(-c3ccc(F)cc3)c2Nc2ccc(F)cc2)C1 [Compound 19]
Activity (%) (Plasmodium berghei; [9]): 99.3%
Survival (Plasmodium berghei; [10]): 7.7 days
Activity (%) (Plasmodium berghei; 1 x 100 mg/kg): 99.6%
Survival (Plasmodium berghei; [11]): 13.3 days
Activity (%) (Plasmodium berghei; 3 x 30 mg/kg): 99.9%
Survival (Plasmodium berghei; [12]): 14.0 days
parasitemia reduction (Plasmodium berghei; at all dosing regimens): more than 99%

SMILES: CCc1nc(N)nc(N)c1-c1ccc(Cl)cc1 [Pyrimethamine]
Ki [4]: 0.385 ± 0.163 µM
Ki [5]: 0.00059 ± 5e-05 µM

SMILES: CC1CCN(C2CCN(c3cc(C(=O)Nc4cccc(Cl)c4)cc(C(F)(F)F)c3)CC2)CC1 [Compound 14]
EC50 (P. falciparum 3D7; [7]): 0.14 µM
EC50 [3]: 0.1 to 0.3 µM
EC50 (P. falciparum W2; piperidyl benzamides): 0.323 µM

SMILES: C[C@H]1[C@H](OC(=O)CCC(=O)O)O[C@@H]2O[C@@]3(C)CC[C@H]4[C@H](C)CC[C@@H]1[C@@]24OO3 [AS, artesunate, reference compound]
Activity (%) (Plasmodium berghei; [9]): 89%
Activity (%) (Plasmodium berghei; 1 x 30 mg/kg, 10% ethanol, 30% PEG400, 6% vitamin E TPGS (30: 0.5% MCM / 0.1% Solutol HS15)): 92.2%
Cure Rate (%) (Plasmodium berghei; 1 x 30 mg/kg): 0%
Survival (Plasmodium berghei; [10]): 7.2 days
Survival (Plasmodium berghei; 1 x 30 mg/kg, untreated mice 6-7 days, Table 10): 7.3 days
Activity (%) (Plasmodium berghei; 1 x 100 mg/kg): 97%
Survival (Plasmodium berghei; [11]): 6.7 days
Survival (Plasmodium berghei; 3 x 30 mg/kg, 30 day experiment, Table 10): 11.8 days
Activity (%) (Plasmodium berghei; 3 x 30 mg/kg): 98%
Activity (%) (Plasmodium berghei; 3 x 30 mg/kg, Table 10): 99.0%
Cure Rate (%) (Plasmodium berghei; 3 x 30 mg/kg): 0%
Survival (Plasmodium berghei; [12]): 7.2 days

More lines, main results first:

EC50 (P. falciparum 3D7; [6]): 0.312 µM
IC50 (recombinant PfCDPK1): 4.04 µM
SMILES: N[C@H]1CC[C@H](Nc2nc(Nc3ccc(C(=O)N4CCCCC4)cc3)c3ncn(-c4ccc(OCc5ccccc5)cc4)c3n2)CC1 [Compound 3]

EC50 (P. falciparum 3D7; imidazolopyrimidines, Fig. 2, read-out: 3D7 EC50): 0.034 µM
EC50 [3]: < 0.14 µM
human kinase profile on 190 kinases (190 kinases): clean human kinase profile
SMILES: CN1CCN(c2nc(Nc3ccc(OC(F)(F)F)cc3)cc(Nc3nccn3-c3cccc(C(F)(F)F)c3)n2)CC1 [Compound 17]
improvement in potency over the hit compound (P. falciparum 3D7; 17 versus 16): greater than 10 fold

EC50 (P. falciparum 3D7; [6]): > 10 µM
IC50 (recombinant PfCDPK1): 0.028 µM
SMILES: N[C@H]1CC[C@H](Nc2nc(Nc3ccc(C(=O)N4CCCCC4)cc3)c3ncn(-c4ccc(C(=O)O)cc4)c3n2)CC1 [Compound 7]

EC50 (P. falciparum 3D7; [7]): 0.149 µM
EC50 (P. falciparum W2; piperidyl benzamides): 0.299 µM
SMILES: O=C(Nc1cccc(C(F)(F)F)c1)c1cc(N2CCC(N3CCCCC3)CC2)cc(C(F)(F)F)c1 [Compound 13]

EC50 (P. falciparum 3D7; [8]): 0.116 µM
EC50 (P. falciparum W2; imidazolopiperazine hits): 0.119 µM
SMILES: CC(C)CC(N)C(=O)N1CCn2c(nc(-c3ccccc3)c2Nc2ccc3c(c2)OCO3)C1 (stereo not shown) [Compound 18c]
Cytotoxicity (µM) Huh7 (Huh7): > 10 µM

EC50 (P. falciparum 3D7; [8]): 0.235 µM
EC50 (P. falciparum W2; imidazolopiperazine hits): 0.271 µM
SMILES: NC(Cc1ccccc1)C(=O)N1CCn2c(nc(-c3ccccc3)c2Nc2ccc3c(c2)OCO3)C1 (stereo not shown) [Compound 18b]
Cytotoxicity (µM) Huh7 (Huh7): > 10 µM
